# Results from US7968577B2 (Bristol-Myers Squibb Company, priority 2006, dated 2011).
# Tests used:
# [1] = target: T1, human full-length glucocorticoid receptor (Homo sapiens, UniProt P04150); assay: Glucocorticoid Receptor Binding Assay (II), fluorescence polarization competitor kit (Fluormone GS1); details: GR Binding Assay (II)
# T1 construct: recombinantly expressed human full-length glucocorticoid receptor; purchased PanVera Co., Madison, Wis; P2816
# T1 sequence (P04150 1-777): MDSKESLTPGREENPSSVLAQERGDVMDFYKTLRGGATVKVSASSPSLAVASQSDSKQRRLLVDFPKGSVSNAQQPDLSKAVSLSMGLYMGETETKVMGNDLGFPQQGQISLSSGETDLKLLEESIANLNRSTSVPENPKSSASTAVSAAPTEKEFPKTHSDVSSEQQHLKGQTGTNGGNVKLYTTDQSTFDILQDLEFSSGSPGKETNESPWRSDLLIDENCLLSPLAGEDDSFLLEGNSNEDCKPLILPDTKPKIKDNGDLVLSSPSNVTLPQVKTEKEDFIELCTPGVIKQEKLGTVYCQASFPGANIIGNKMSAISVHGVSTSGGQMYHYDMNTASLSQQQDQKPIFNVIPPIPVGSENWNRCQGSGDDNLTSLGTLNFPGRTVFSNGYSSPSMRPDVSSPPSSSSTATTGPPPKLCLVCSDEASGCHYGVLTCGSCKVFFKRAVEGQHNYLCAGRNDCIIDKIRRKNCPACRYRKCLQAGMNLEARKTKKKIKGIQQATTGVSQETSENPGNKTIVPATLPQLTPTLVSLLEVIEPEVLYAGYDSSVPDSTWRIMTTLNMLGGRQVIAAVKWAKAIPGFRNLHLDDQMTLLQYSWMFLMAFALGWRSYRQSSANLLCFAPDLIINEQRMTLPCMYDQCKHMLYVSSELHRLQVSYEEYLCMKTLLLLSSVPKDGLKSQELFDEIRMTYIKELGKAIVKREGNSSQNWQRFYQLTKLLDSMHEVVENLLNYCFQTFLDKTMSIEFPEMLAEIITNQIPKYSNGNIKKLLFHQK
# Description: Glucocorticoid Receptor Binding Assay (II)^b
# In order to measure the binding of compounds on the glucocorticoid receptor a commercially available kit was used (Glucocorticoid receptor competitor assay kit, PanVera Co., Madison, Wis., P2816). Briefly, a cell lysate containing recombinantly expressed human full-length glucocorticoid receptor was mixed with a fluorescently labeled glucocorticoid (1 nM Fluormone GS1) in the presence or absence of test compound. After one hour at room temperature, the fluorescence polarization (FP) of the samples were measured.
# [2] = system: AP-1 induced transcriptional activity; assay: Cellular Transrepressional Assay: AP-1 luciferase reporter in PMA-activated A549 cells; type: cell-based; details: Homo sapiens; for Emax: A549, 7 h, maximum inhibition, Cellular Transrepression Assay, read-out: AP-1 Max % inh (Cellular Transrepression Assay); for EC50: A549, Cellular Transrepression Assay
# Outline: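 Compounds tested from 0.1 nM to 40 μM during a 7 h PMA (10 ng/ml) stimulation of A549 cells stably transfected with 7× AP-1 sites driving luciferase. Repression expressed as % reduction of PMA-induced luminescence; EC50 by curve fitting.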
Compound,Ki [1] [nM],Emax [2] [%],EC50 [2] [nM]
"CC(C)(C(=O)Nc1nncs1)C(c1ccccc1)c1ccc(Br)cc1 (stereo not shown) [Example 318, 3-(4-bromophenyl)-2,2-dimethyl-3-phenyl-N-1,3,4-thiadiazol-2-ylpropanamide]",12.8,,
"CC(=O)Oc1ccc([C@@H](c2ccccc2)C(C)(C)C(=O)Nc2nccs2)cc1 [Example 360, 4-((1R)-2,2-Dimethyl-3-oxo-1-phenyl-3-(1,3-thiazol-2-ylamino)propyl)phenyl acetate]",21.7,,
"CC(C)(C(=O)Nc1nccs1)C(c1ccccc1)c1ccc(Br)c(F)c1 (stereo not shown) [Example 314, 3-(4-bromo-3-fluorophenyl)-2,2-dimethyl-3-phenyl-N-1,3-thiazol-2-ylpropanamide]",13.2,,
"COc1ccc([C@H](c2ccccc2)C(C)(C)C(=O)Nc2nncs2)cc1Br [Example 287, (3S)-3-(3-bromo-4-(methyloxy)phenyl)-2,2-dimethyl-3-phenyl-N-1,3,4-thiadiazol-2-ylpropanamide]",14.7,,
"COc1ccc([C@@H](c2ccccc2)C(C)(C)C(=O)Nc2nc(C)cs2)cc1 [Example 266, 2,2-dimethyl-3-(4-(methyloxy)phenyl)-N-(4-methyl-1,3-thiazol-2-yl)-3-phenylpropanamide]",315,,
"COc1ccc(C(c2ccccc2)C(C)(C)C(=O)Nc2nccs2)cc1F (stereo not shown) [Example 282, 3-(3-fluoro-4-(methyloxy)phenyl)-2,2-dimethyl-3-phenyl-N-1,3-thiazol-2-ylpropanamide]",29.5,,
CC(O)c1ccc(C(c2ccccc2)C(C)(C)C(=O)Nc2nncs2)cc1 (stereo not shown) [Example 372],96.1,,
"CC(C)(C(=O)Nc1nccs1)C(C)(c1ccccc1)c1ccc(N2CCOCC2)cc1 (stereo not shown) [Example 249, 2,2-dimethyl-3-(4-(4-morpholinyl)phenyl)-3-phenyl-N-1,3-thiazol-2-ylbutanamide]",181,,
"CC(C)(C(=O)Nc1nccs1)C(c1ccccc1)c1cccc(Br)c1 (stereo not shown) [Example 311, 3-(3-bromophenyl)-2,2-dimethyl-3-phenyl-N-1,3-thiazol-2-ylpropanamide]",17.5,,
"CC(=O)Nc1ccc(C(c2ccccc2)C(C)(C)C(=O)Nc2nccs2)cc1 (stereo not shown) [Example 247, 3-(4-(acetylamino)phenyl)-2,2-dimethyl-3-phenyl-N-1,3-thiazol-2-ylpropanamide]",413,,
"CC(C)(C)OC(=O)N1CCN(c2ccc(C(c3ccccc3)C(C)(C)C(=O)Nc3nncs3)cc2)CC1 (stereo not shown) [Example 238, 1,1-dimethylethyl 4-(4-(2,2-dimethyl-3-oxo-1-phenyl-3-(1,3,4-thiadiazol-2-ylamino)propyl)phenyl)-1-piperazinecarboxylate]",408,,
"CC(C)(C(=O)Nc1nncs1)C(c1ccc(Cl)cc1)c1ccc(N2CCOCC2)cc1 (stereo not shown) [Example 233, 3-(4-chlorophenyl)-2,2-dimethyl-3-(4-(4-morpholinyl)phenyl)-N-1,3,4-thiadiazol-2-ylpropanamide]",13.2,,
"CC(C)(C(=O)Nc1nncs1)C(c1ccccc1)c1cccc(Br)c1 (stereo not shown) [Example 312, 3-(3-bromophenyl)-2,2-dimethyl-3-phenyl-N-1,3-thiadiazol-2-ylpropanamide]",19.9,,
"CC(O)c1ccc(C(c2ccccc2)C(C)(C)C(=O)Nc2nccs2)cc1 (stereo not shown) [Example 371, 3-(4-(1-Hydroxyethyl)phenyl)-2,2-dimethyl-3-phenyl-N-1,3-thiazol-2-ylpropanamide]",38.1,,
"Cc1csc(NC(=O)C(C)(C)[C@@H](c2ccccc2)c2ccc(O)cc2)n1 [Example 329, (3S)-3-(4-hydroxyphenyl)-2,2-dimethyl-N-(4-methyl-1,3-thiazol-2-yl)-3-phenylpropanamide]",16.8,,
"CC(O)c1cccc(C(c2ccccc2)C(C)(C)C(=O)Nc2nccs2)c1 (stereo not shown) [Example 373, 3-(3-(1-hydroxyethyl)phenyl)-2,2-dimethyl-3-phenyl-N-1,3-thiazol-2-ylpropanamide]",320,,

Compound,Ki [1] [nM],Emax [2] [%],EC50 [2] [nM]
"CC(=O)Nc1ccc(C(c2ccccc2)C(C)(C)C(=O)Nc2nncs2)cc1 (stereo not shown) [Example 246, 3-(4-(acetylamino)phenyl)-2,2-dimethyl-3-phenyl-N-1,3,4-thiadiazol-2-ylpropanamide]",1500,,
"COc1ccc([C@H](c2ccccc2)C(C)(C)C(=O)NC2CC2)cc1 [Example 269, (3S)-N-cyclopropyl-2,2-dimethyl-3-(4-(methyloxy)phenyl)-3-phenylpropanamide]",1300,,
"COc1ccc(C(c2ccc(OC)cc2)C(C)(C)C(=O)Nc2nccs2)cc1 [Example 69, 2,2-dimethyl-3,3-bis(4-(methyloxy)phenyl)-N-1,3-thiazol-2-ylpropanamide]",67.2,,
"COc1ccc([C@@H](c2ccccc2)C(C)(C)C(=O)Nc2nccs2)cc1Br [Example 286, (3R)-3-(3-bromo-4-(methyloxy)phenyl)-2,2-dimethyl-3-phenyl-N-1,3-thiazol-2-ylpropanamide]",46.7,,
"Cc1ccc(CNc2ccc(C(c3ccccc3)C(C)(C)C(=O)Nc3nncs3)cc2)cc1 (stereo not shown) [Example 240, 2,2-dimethyl-3-(4-(((4-methylphenyl)methyl)amino)phenyl)-3-phenyl-N-1,3,4-thiadiazol-2-ylpropanamide]",18.6,,
"CC(C)(C(=O)Nc1nc(Cc2ccc(-c3ccncc3)cc2)cs1)C(c1ccccc1)c1ccc(Br)cc1 (stereo not shown) [Example 300, 3-(4-bromophenyl)-2,2-dimethyl-3-phenyl-N-(4-((4-(4-pyridinyl)phenyl)methyl)-1,3-thiazol-2-yl)propanamide]",,73.7,9.97
"CCOC(=O)/C(=N/OC)c1csc(NC(=O)C(C)(C)C(c2ccccc2)c2ccccc2)n1 [Example 49, ethyl (2E)-(2-((2,2-dimethyl-3,3-diphenylpropanoyl)amino)-1,3-thiazol-4-yl)((methyloxy)imino)ethanoate]",,20.1,
"CC(C)(C(=O)Nc1nc(-c2ccnc3ccccc23)cs1)C(c1ccccc1)c1ccccc1 [Example 184, 2,2-dimethyl-3,3-diphenyl-N-(4-(4-quinolinyl)-1,3-thiazol-2-yl)propanamide]",,57.5,
"COc1ccc([C@@H](c2ccccc2)C(C)(C)C(=O)Nc2nc(Cc3ccc(-c4ccncc4)cc3)cs2)cc1 (stereo in doubt) [Example 290, 2,2-dimethyl-3-(4-(methyloxy)phenyl)-3-phenyl-N-(4-((4-(4-pyridinyl)phenyl)methyl)-1,3-thiazol-2-yl)propanamide]",,72.6,9.65
"CC(C)(C(=O)Nc1nncs1)C(c1ccccc1)c1ccc(-c2ccc(C(=O)NC3CC3)cc2)cc1 (stereo not shown) [Example 425, N-cyclopropyl-4′-(2,2-dimethyl-3-oxo-1-phenyl-3-(1,3,4-thiadiazol-2-ylamino)propyl)-4-biphenylcarboxamide]",,28.7,3.63
"Cc1cccc(C(c2ccc(N3CCOCC3)cc2)C(C)(C)C(=O)Nc2nccs2)c1 (stereo not shown) [Example 234, 2,2-dimethyl-3-(3-methylphenyl)-3-(4-(4-morpholinyl)phenyl)-N-1,3-thiazol-2-ylpropanamide]",,39,573
"CC(C)Oc1ccc(-c2ccc(C(c3ccccc3)C(C)(C)C(=O)Nc3nncs3)cc2)cc1 (stereo not shown) [Example 382, 2,2-dimethyl-3-(4′-((1-methylethyl)oxy)-4-biphenylyl)-3-phenyl-N-1,3,4-thiadiazol-2-ylpropanamide]",,40.1,28.1
"COc1ccc2c(-c3csc(NC(=O)C(C)(C)C(c4ccccc4)c4ccccc4)n3)cccc2c1 [Example 166, 2,2-dimethyl-N-(4-(6-(methyloxy)-1-naphthalenyl)-1,3-thiazol-2-yl)-3,3-diphenylpropanamide]",,62.3,950
"COc1ccc(C(c2ccccc2)C(C)(C)C(=O)Nc2nc(C)c(C)s2)cc1 (stereo not shown) [Example 106, N-(4,5-dimethyl-1,3-thiazol-2-yl)-2,2-dimethyl-3-(4-(methyloxy)phenyl)-3-phenylpropanamide]",,35.9,
"COCc1ccc(-c2ccc(C(c3ccccc3)C(C)(C)C(=O)Nc3nncs3)cc2)cc1 (stereo not shown) [Example 408, 3-(4′-(methoxymethyl)-4-biphenylyl)-2,2-dimethyl-3-phenyl-N-1,3,4-thiadiazol-2-ylpropanamide]",,24.9,39.8
"CC(C)(C(=O)Nc1nncs1)[C@@H](c1ccccc1)c1ccc(O)c(Br)c1 [Example 351, (3S)-3-(3-bromo-4-hydroxyphenyl)-2,2-dimethyl-3-phenyl-N-1,3,4-thiadiazol-2-ylpropanamide]",,66,16.4
